Measured values published in patent publication US20220127297A1, “Novel Antibacterial 3"-Derivatives Of 4,6-Disubstituted 2,5-Dideoxystreptamine Aminoglycoside Antibiotics” (AGILeBiotics B.V., priority 2018, published 2022).
Where two headings read alike, the source gives them in different places.

What was measured:
Test in all cases: MIC determination at University Medical Center Groningen
Type in all cases: cell-based
[1] = tested on: clinical isolates of Acinetobacter baumannii (and ATCC17978)
Source text: (§1) 3.4.3 MIC Determination at University Medical Center Groningen (the Netherlands)
(§2) Tested reference compounds. Amikacin sulfate (Cat. No. 01693, Chem-Impex), Gentamicin sulfate (Cat. No. G4918, Sigma Aldrich).
(§3) Bacterial strains/isolates. Pseudomonas aeruginosa ATCC 27853, Escherichia coli ATCC 25922, Klebsiella pneumonia ATCC43816, Acinetobacter baumannii ATCC17978, 9 clinical isolates of Klebsiella pneumonia (origin: 4 unknown, 3 urine, 1 sputum, 1 catheter tip), 7 clinical isolates of Pseudomonas aeruginosa (origin: 3 unknown, 1 wound, 1 catheter, 1 faeces, bronco alveolar liquid=BAL), 8 clinical isolates of Escherichia coli (origin: 2 bile liquid, 2 rectum, 1 throat, 2 blood culture, 1 sputum), 4 clinical isolates of Acinetobacter baumannii (origin: 2 blood culture, 1 sputum, 1 bone).
(§4) Culture media and equipment. As indicated by EUCAST guidelines (European Committee on Antimicrobial Susceptibility Testing (EUCAST); Media preparation for EUCAST disk diffusion testing and for determination of MIC values by the broth microdilution method; Version 5.0, 2017), Mueller Hinton Broth, CM0405, (Oxoid) was used for the broth micro-dilutions; and Mueller Hinton Agar, CM0337, (Oxoid) was used for the plating on agar. The testing assays were conducted in 96-well plates, with U-bottom shape (Greiner Bio-one); All bacteria strains/isolates used were handled in a Laminar flow, Clean Air (Baker). A CO2 incubator commercialized by Sanyo was used. Finally, spectrophotometer measurements were conducted using a Synergy 2 Multi-detection Microplate Reader (BioTek).
(§5) Compound preparation. The compounds were weighed and dissolved into MilliQ water. These concentrated stock aliquots were then further diluted to reach the desired testing concentrations. Serial dilutions were made in order to achieve the ten desired final concentrations for the tested compounds, that ranged between 64-0.125 μg/mL. The concentrations were calculated in respect to the 150 μL of final volume used for each of the 96-wells. Of these dilutions, 100 μL was added in each testing well of a sterile 96-well plate. All compound dilutions were plated in triplicate, while duplicates were used for the two reference antibiotics.
(§6) Inoculum preparation. The clinical isolates were revived from Luria Bertani medium storage at −80° C. by plating them overnight on MH agar plates. The following day, a few colonies were picked and inoculated in small glass bottles containing 10 mL MH broth. Growth was subsequently allowed for approx. 3 hours, at 35° C. with 250 rpm shaking, until the isolates reached late logarithmic growth phase. At this point culture solutions were prepared with an OD600 (optical density measured at 600 nm; measured using Synergy 2 Multi-detection Microplate Reader; BioTek) of 0.05. […] 50 μL of culture suspension was added to each of the wells of the 96 well plate previously loaded with the desired antibiotic/medium solution, reaching a final total volume of 150 μL per well. As controls, blanks of the MH medium and of culture were added to the 96-well plate. Plates were incubated in a plate incubator in static conditions at 35° C. for 18 hours.
(§7) MIC determination. After the incubation time, the MIC value was determined by visual inspection of bacterial growth within 96-well plates. The first column in which there was no visible growth of bacteria was determined as the MIC90 value for the compound tested in that particular row. Additionally, spectrophotometer readouts at 600 nm were recorded for each well.
(§8) MIC90. The MIC90 of a compound was assigned at which no visible growth of bacteria was determined.

[2] = tested on: clinical isolates of Escherichia coli (and ATCC 25922)
Source text: as §1, §2, §3, §4, §5, §6, §7, §8

[3] = tested on: clinical isolates of Klebsiella pneumonia (and ATCC43816); conditions: Klebsiella pneumoniae
Source text: as §1, §2, §3, §4, §5, §6, §7, §8

SMILES: N=C(N)NC1C(O)[C@@H](CO)OC(OC2C(F)[C@H](O[C@H]3OC(CN)[C@@H](O)CC3N)C(N)C[C@H]2NC(=O)[C@@H](O)CCN)[C@@H]1O (stereo partly drawn) [ABX5006, Tobra-AHB-F-Gua]
- MIC90 ([1]; ATCC17978, A. baumannii ATCC17978 strain, broth micro-dilution (CLSI)): < 0.125 mg/L
- MIC90 ([1]; ATCC17978, A. baumannii clinical isolate AB-2, Multidrug-resistant, origin Sputum): 0.5 to 1 mg/L
- MIC90 ([1]; ATCC17978, A. baumannii clinical isolate AB-10, Multidrug-resistant, origin Blood culture): 0.5 to 1 mg/L
- MIC90 ([1]; ATCC17978, A. baumannii clinical isolate AB-14, Multidrug-resistant, origin Blood culture): 0.5 to 1 mg/L
- MIC90 ([1]; ATCC17978, A. baumannii clinical isolate AB-18, Multidrug-resistant, origin Bone): 2 to 4 mg/L
- MIC90 ([2]; ATCC25922, E. coli ATCC25922 strain, broth micro-dilution (CLSI)): 0.5 mg/L
- MIC90 ([2]; ATCC25922, E. coli clinical isolate EC-11, Multidrug-resistant, origin Throat): 0.5 mg/L
- MIC90 ([2]; ATCC25922, E. coli clinical isolate EC-12, Multidrug-resistant, origin Rectum): 2 mg/L
- MIC90 ([2]; ATCC25922, E. coli clinical isolate EC-22, Multidrug-resistant, origin Sputurn): 4 mg/L
- MIC90 ([2]; ATCC25922, E. coli clinical isolate EC-25, Multidrug-resistant, origin Bile liquid): 4 mg/L
- MIC90 ([2]; ATCC25922, E. coli clinical isolate EC-26, Multidrug-resistant, origin Bile liquid): 4 mg/L
- MIC90 ([2]; ATCC25922, E. coli clinical isolate EC-40, Multidrug-resistant, origin Blood culture): 2 mg/L
- MIC90 ([2]; ATCC25922, E. coli clinical isolate EC-43, Multidrug-resistant, origin Rectum): 4 mg/L
- MIC90 ([2]; ATCC25922, E. coli clinical isolate EC-46, suceptible, origin Blood culture): 2 mg/L
- MIC90 ([3]; ATCC43816, K. pneumoniae ATCC43816 strain, broth micro-dilution (CLSI), read-out: MIC 90): 0.25 mg/L
- MIC90 ([3]; ATCC43816, K. pneumoniae clinical isolate KP-107, KPC/Pandrug-resistant, origin Urine, read-out: MIC 90): 8 mg/L
- MIC90 ([3]; ATCC43816, K. pneumoniae clinical isolate KP-108, KPC/Pandrug-resistant, origin Urine, read-out: MIC 90): 8 mg/L
- MIC90 ([3]; ATCC43816, K. pneumoniae clinical isolate KP-109, KPC/Pandrug-resistant, origin Catheter tip, read-out: MIC 90): 16 mg/L
- MIC90 ([3]; ATCC43816, K. pneumoniae clinical isolate KP-110, KPC/Pandrug-resistant, origin Sputum, read-out: MIC 90): 8 mg/L
- MIC90 ([3]; ATCC43816, K. pneumoniae clinical isolate KP-111, KPC/Pandrug-resistant, origin Urine, read-out: MIC 90): 8 mg/L
- MIC90 ([3]; ATCC43816, K. pneumoniae clinical isolate KP-113, KPC/Pandrug-resistant, origin unkown): 4 mg/L
